Experimental data reported in patent publication US20070161592A1, “Method of treating fear” (priority 2005, published 2007).

Assays:
[1] = test system: NR2A, NR1, GluR1, and actin; assay: Western blot of other membrane proteins in ACC after siRNA electroporation; assay type: in vivo, mouse; details: four days after electroporation, vs control siRNA
Experimental: Equal amounts of protein from the ACC and hippocampus were separated and electrotransferred onto PDVF membranes (Invitrogen), which were probed with anti-NR2A, anti-NR2B (Chemicon), and anti-PSD-95 (ABR) and with β-actin (Sigma) as a loading control. The membranes were incubated with horseradish peroxidase-conjugated secondary antibodies (anti-mouse IgG for PSD-95 and anti-rabbit IgG for the other primary antibodies), and bands were visualized using an ECL system (Perkin Elmer). Synaptosomal membrane fractions (LP1) were prepared as previously described (Dunah and Standaert, 2001) and solubilized using 1% SDS in TEVP buffer: 10 mM Tris-HCl, pH 7.4, 1 mM EDTA, 1 mM EGTA, 1× protease inhibitor cocktail (Sigma), and 1× phosphatase inhibitor cocktail 1 and 2 (Sigma). […] Results are expressed as means±SEM. […]
To inhibit NR2B expression specifically in the prefrontal cortex, including the ACC, siRNA was bilaterally delivered against NR2B with a reporter plasmid encoding EGFP by microelectroporation (Wei et al., 2003) (FIG. 8A). […] The expression levels of other NMDAR subunits (NR2A and NR1) and AMPA receptor subunit GluR1 were measured, and actin was used as a control in the ACCs of NR2B siRNA and control siRNA electroporated mice.

[2] = test system: NR2B siRNA electroporated ACC neurons; assay: LTP in siRNA electroporated ACC neurons; assay type: cell-based, mouse
Experimental: Experiments were performed in a recording chamber on the stage of an Axioskop 2FS microscope with infrared DIC optics for visualizing whole-cell patch clamp recordings. EPSCs were recorded from layer II-III neurons using an Axon 200B amplifier (Axon Instruments, CA) and stimulations were delivered using a bipolar tungsten stimulating electrode placed in layer V of the ACC. In hippocampal slices, EPSCs were evoked by stimulating the Schaffer collateral-commissural pathway. EPSCs were induced by repetitive stimulations at 0.02 Hz and neurons were voltage clamped at −70 mV. The recording pipettes (3-5 MΩ) were filled with solution containing (mM) 145 K-gluconate, 5 NaCl, 1 MgCl2, 0.2 EGTA, 10 HEPES, 2 Mg-ATP, and 0.1 Na3-GTP (adjusted to pH 7.2 with KOH). After obtaining stable EPSCs for 10 min, three kinds of LTP induction paradigms were used within 12 min after establishing the whole-cell configuration to prevent wash out effect on LTP induction (Tsvetkov et al., 2002). The first protocol involved paired presynaptic 80 pulses at 2 Hz with postsynaptic depolarization at +30 mV (referred to as pairing training). The second involved paired 3 presynaptic stimuli that caused 3 EPSPs (10 ms ahead) with 3 postsynaptic APs at 30 Hz, paired 15 times every 5 s (named as EPSPs-APs protocol). The third involved theta-burst stimulation (5 trains of burst with 4 pulses at 100 Hz, at 200 ms interval; repeated 4 times at intervals of 10 s; named as TBS). The NMDAR-mediated component of EPSCs was pharmacologically isolated in Mg^2+-free ACSF containing: CNQX (20 μM), glycine (1 μM) and picrotoxin (100 μM). The patch electrodes contained (in mM) 102 cesium gluconate, 5 TEA-chloride, 3.7 NaCl, 11 BAPTA, 0.2 EGTA, 20 HEPES, 2 MgATP, 0.3 NaGTP, and 5 QX-314 chloride (adjusted to pH 7.2 with CsOH). Neurons were voltage clamped at −60 mV and NMDARs-mediated EPSCs were evoked at 0.05 Hz. Picrotoxin (100 μM) was always present to block GABAA receptor-mediated inhibitory synaptic currents. The access resistance was 15-30 MΩ and was monitored throughout the experiment. […] Results are expressed as means±SEM. […]

NR2B siRNA: siRNA corresponding to NR2B, sense 5′-GGAUGAGUCCUCCAUGUUCtt-3′, antisense 5′-GAACAUGGAGGACUCAUCCtt-3′, Silencer Pre-designed siRNA ID #61879, Ambion (sense GGAUGAGUCCUCCAUGUUCTT; antisense GAACAUGGAGGACUCAUCCTT; chemistry not given here)
expression levels of NR2A, NR1, GluR1, and actin [1]: not significantly changed | LTP vs control siRNA electroporated neurons ([2]; FIG. 7D): Smaller LTP | potentiation (LTP) vs control siRNA electroporated neurons ([2]; TBS): significantly reduced | potentiation (LTP) vs control siRNA electroporated neurons ([2]; pairing training protocol): significantly reduced
